Series [1] relates to Drosophila melanogaster. The series is described as follows: Toxicity in Drosophila melanogaster third instar larvae assessed as change in larvae development at 40 uM administered through feeding measured after 5 days. To be noted: in vivo, po, 120 h. The class given is organism-based.
Series [2] has as its system Drosophila melanogaster. Kind of series: Toxicity in Drosophila melanogaster third instar larvae assessed as change in fecundity at 40 uM administered through feeding measured after 5 days. Format: organism-based. Conditions: in vivo, po, 120 h.
In series [3] the test system is COLO 205. The series is described as follows: Cytotoxicity against human COLO205 cells assessed as reduction in cell viability at 0.5 to 4 uM after 48 hrs by MTT assay. The class given is functional, cell-based.
For series [4], the system named is COLO 205. The series is described as follows: Downregulation of HDAC-6 protein expression in human COLO205 cells at 4 uM after 24 hrs by Western blot analysis. The class given is functional, cell-based. For orientation: In western blotting, separated proteins are transferred to a membrane and probed.
Series [5] concerns COLO 205. The series is described as follows: Downregulation of HDAC-3 protein expression in human COLO205 cells at 4 uM after 24 hrs by Western blot analysis. The class given is functional, cell-based.
Series [6] concerns COLO 205. Kind of series: Cell cycle arrest in human COLO205 cells assessed as accumulation at G2/M phase at 4 uM after 24 hrs by propidium iodide staining-based flow cytometry (reference value: 22%). Format: functional. (In flow cytometry, cells or beads pass a laser one at a time.)
For series [7], the system named is COLO 205. Kind of series: Cell cycle arrest in human COLO205 cells assessed as accumulation at S phase at 4 uM after 24 hrs by propidium iodide staining-based flow cytometry (reference value: 7%). Format: functional.
In series [8] the test system is COLO 205. Kind of series: Cell cycle arrest in human COLO205 cells assessed as accumulation at G1 phase at 4 uM after 24 hrs by propidium iodide staining-based flow cytometry (reference value: 71%). The class given is functional.
Series [9] concerns Drosophila melanogaster. Kind of series: Downregulation of miR-14 expression in Drosophila melanogaster third instar larval wing imaginal disc assessed as increase in EGFP expression at 40 uM administered through feeding measured after 5 days by confocal microscopy. The class given is functional, organism-based.
The subject of series [10] is Drosophila melanogaster. The series is described as follows: Downregulation of miR-13a expression in Drosophila melanogaster third instar larval wing imaginal disc assessed as increase in EGFP expression at 40 uM administered through feeding measured after 5 days by confocal microscopy. The class given is functional, organism-based.
The subject of series [11] is Drosophila melanogaster. The series is described as follows: Downregulation of bantam microRNA expression in Drosophila melanogaster third instar larval wing imaginal disc assessed as increase in EGFP expression at 40 uM administered through feeding measured after 5 days by confocal microscopy. The class given is functional, organism-based.
Series [12] concerns Drosophila melanogaster. The series is described as follows: Upregulation of Hid expression in Drosophila melanogaster third instar larval wing imaginal disc at 10 to 100 uM administered through feeding measured after 5 days by semi quantitative RT-PCR analysis relative to control. The class given is functional.
For series [13], the system named is Drosophila melanogaster. Kind of series: Effect on Ago-1 expression in Drosophila melanogaster third instar larval wing imaginal disc at 10 to 100 uM administered through feeding measured after 5 days by semi quantitative RT-PCR analysis. Format: functional, organism-based.
Series [14] concerns Drosophila melanogaster. Kind of series: Downregulation of Dicer-1 expression in Drosophila melanogaster third instar larval wing imaginal disc at 10 to 100 uM administered through feeding measured after 5 days by semi quantitative RT-PCR analysis relative to control. The class given is functional.
For series [15], the system named is Drosophila melanogaster. Kind of series: Downregulation of Pasha expression in Drosophila melanogaster third instar larval wing imaginal disc at 10 to 100 uM administered through feeding measured after 5 days by semi quantitative RT-PCR analysis relative to control. Format: functional.
In series [16] the test system is Drosophila melanogaster. Kind of series: Downregulation of Drosha expression in Drosophila melanogaster third instar larval wing imaginal disc at 10 to 100 uM administered through feeding measured after 5 days by semi quantitative RT-PCR analysis relative to control. Format: functional.
Series [17] deals with Drosophila melanogaster. The series is described as follows: Downregulation of miR-13a expression in Drosophila melanogaster third instar larval wing imaginal disc assessed as increase in EGFP expression at 40 uM administered through feeding measured after 5 days by confocal microscopy relative to control. The class given is functional.
For series [18], the system named is Drosophila melanogaster. The series is described as follows: Downregulation of bantam microRNA expression in Drosophila melanogaster third instar larval wing imaginal disc assessed as increase in EGFP expression at 40 uM administered through feeding measured after 5 days by confocal microscopy relative to control. The class given is functional.
Series [19] deals with COLO 205. The series is described as follows: Cytotoxicity against human COLO205 cells assessed as decrease in AGO-2 expression at 4 uM after 24 hrs by Western blot analysis. The class given is functional, cell-based.
Series [20] concerns COLO 205. The series is described as follows: Cytotoxicity against human COLO205 cells assessed as decrease in AGO-1 expression at 4 uM after 24 hrs by Western blot analysis. The class given is functional, cell-based.
For series [21], the system named is COLO 205. Kind of series: Cytotoxicity against human COLO205 cells assessed as decrease in miR-542-5p level by RT-PCR analysis. Format: functional, cell-based.
Series [22] concerns COLO 205. Kind of series: Cytotoxicity against human COLO205 cells assessed as increase in miR-145 level by RT-PCR analysis. The class given is functional, cell-based.
Series [23] relates to COLO 205. Kind of series: Cytotoxicity against human COLO205 cells assessed as miR-450 expression by RT-PCR analysis. The class given is functional, cell-based.
The subject of series [24] is COLO 205. The series is described as follows: Induction of apoptosis in human COLO205 cells assessed as chromatin condensation at 4 uM after 24 hrs by Hoechst 33342-staining based confocal microscopy. The class given is functional, cell-based.
The subject of series [25] is COLO 205. Kind of series: Induction of apoptosis in human COLO205 cells assessed as cellular blebbing at 4 uM after 24 hrs by Hoechst 33342-staining based confocal microscopy. The class given is functional, cell-based.
Series [26] concerns COLO 205. The series is described as follows: Induction of apoptosis in human COLO205 cells assessed as cellular shrinkage at 4 uM after 24 hrs by Hoechst 33342-staining based confocal microscopy. The class given is functional, cell-based.
Series [27] deals with COLO 205. The series is described as follows: Induction of apoptosis in human COLO205 cells assessed as DNA fragmentation at 4 uM by tunel assay. The class given is functional, cell-based.
Series [28] has as its system COLO 205. Kind of series: Induction of apoptosis in human COLO205 cells assessed as caspase 3 expression at 4 uM after 24 hrs by fluorimetric assay in presence of Z-DEVD-FMK. Format: functional, cell-based.
For series [29], the system named is COLO 205. Kind of series: Induction of apoptosis in human COLO205 cells assessed as caspase 9 expression at 4 uM after 24 hrs by fluorimetric assay in presence of Z-LEHD-FMK. Format: functional, cell-based.
The subject of series [30] is COLO 205. The series is described as follows: Induction of apoptosis in human COLO205 cells assessed as increase in caspase 3 expression at 4 uM after 24 hrs by fluorimetric assay relative to control. Format: functional.
The subject of series [31] is COLO 205. The series is described as follows: Induction of apoptosis in human COLO205 cells assessed as increase in caspase 9 expression at 4 uM after 24 hrs by fluorimetric assay relative to control. The class given is functional.
Series [32] concerns COLO 205. Kind of series: Cytotoxicity against human COLO205 cells assessed as Dicer-1 expression at 4 uM after 24 hrs by Western blot analysis. The class given is functional, cell-based.
Series [33] deals with Drosophila melanogaster. The series is described as follows: Downregulation of HDAC-1 mRNA expression in Drosophila melanogaster third instar larval wing imaginal disc at 10 to 100 uM administered through feeding measured after 5 days by semi quantitative RT-PCR analysis. Format: functional, organism-based.
For series [34], the system named is Drosophila melanogaster. Kind of series: Downregulation of Sir2 mRNA expression in Drosophila melanogaster third instar larval wing imaginal disc at 10 to 100 uM administered through feeding measured after 5 days by semi quantitative RT-PCR analysis. Format: functional, organism-based.
Series [35] concerns Drosophila melanogaster. Kind of series: Downregulation of HDAC6 mRNA expression in Drosophila melanogaster third instar larval wing imaginal disc at 10 to 100 uM administered through feeding measured after 5 days by semi quantitative RT-PCR analysis. The class given is functional, organism-based.
Series [36] deals with Drosophila melanogaster. The series is described as follows: Downregulation of HDAC4 mRNA expression in Drosophila melanogaster third instar larval wing imaginal disc at 10 to 100 uM administered through feeding measured after 5 days by semi quantitative RT-PCR analysis. Format: functional, organism-based.
Series [37] deals with Drosophila melanogaster. The series is described as follows: Downregulation of HDAC3 mRNA expression in Drosophila melanogaster third instar larval wing imaginal disc at 10 to 100 uM administered through feeding measured after 5 days by semi quantitative RT-PCR analysis. The class given is functional, organism-based.
The subject of series [38] is Drosophila melanogaster. The series is described as follows: Induction of apoptosis in Drosophila melanogaster third instar larval wing imaginal disc assessed as Dcp-1 activation at 10 to 100 uM administered through feeding measured after 5 days by semi quantitative RT-PCR analysis relative to control. The class given is functional.
Series [39] relates to Drosophila melanogaster. Kind of series: Induction of apoptosis in Drosophila melanogaster third instar larval wing imaginal disc assessed as Dronc activation at 10 to 100 uM administered through feeding measured after 5 days by semi quantitative RT-PCR analysis relative to control. Format: functional.
For series [40], the system named is Drosophila melanogaster. Kind of series: Downregulation of DIAP1 expression in Drosophila melanogaster third instar larval wing imaginal disc at 10 to 100 uM administered through feeding measured after 5 days by semi quantitative RT-PCR analysis. The class given is functional.
Series [41] has as its system Drosophila melanogaster. The series is described as follows: Upregulation of Grim expression in Drosophila melanogaster third instar larval wing imaginal disc at 10 to 100 uM administered through feeding measured after 5 days by semi quantitative RT-PCR analysis relative to control. Format: functional.
Series [42] has as its system Drosophila melanogaster. The series is described as follows: Upregulation of Reaper expression in Drosophila melanogaster third instar larval wing imaginal disc at 10 to 100 uM administered through feeding measured after 5 days by semi quantitative RT-PCR analysis relative to control. Format: functional.

The structures appear in SMILES notation. Activity calls are given as the source filed them. The rule behind the calls is not given here.

As to `Clc1ccc(-c2nc3sc4ccccc4n3c2CN2CCCC2)cc1`, the Activity result in series [1] and in series [2] was “Non-toxic” throughout. For the same molecule, the outcome in series [3] was Active.

With `CCN(CC)CCOc1cccc(-c2cn3c(n2)sc2ccccc23)c1.Cl.Cl`, the outcome in series [4] and in series [5] was Active. Besides, the Activity in [6] is reported as 73%; in series [7], 5%; in series [8], 22%.

As to `CCOc1ccc2c(c1)sc1nc(-c3ccc(Cl)cc3)c(CN3CCN(c4ccccn4)CC3)n12`, the outcome in series [9] was inactive. In addition, the outcome in series [10], in series [11] and in series [3] was Active. Further, the Activity entry in [1] and in series [2] was “Non-toxic” each time.

On to `Fc1ccc2c(c1)sc1nc(-c3ccccc3)c(CN3CCCC3)n12`, for which the Activity entry in series [1] and in series [2] was “Non-toxic” throughout. In addition, the result in series [3] was Active.

In the case of `Cc1ccc2c(c1)sc1nc(-c3ccccc3)c(CN3CCCC3)n12`, the Activity result in series [1] and in series [2] was “Non-toxic” throughout. For the same molecule, the result in series [3] was Active.

Take `c1ccc(-c2nc3sc4ccccc4n3c2CN2CCCC2)cc1`: the Activity entry in [1] and in series [2] was “Non-toxic” each time. Further, the outcome in series [3] was Active.

Regarding `Clc1ccc(-c2nc3sc4ccccc4n3c2CN2CCN(c3ccccn3)CC2)cc1`, the “fold change (FC)” value came to 4 in series [12]; 3 in series [14]; 2 in series [15]; 4 in series [16]; 3 in series [17]; 5 in [18]. Further, the “fold change (FC)” value is 3 in series [30]; 2.5 in [31]; 3 in [38]; 3 in series [39]; 5 in series [40]; 3 in series [41]. Moreover, in series [42], the “fold change (FC)” value is on record as 2.5. The outcome in [13], in [9], in series [23], in [28], in series [29] and in series [32] was inactive. In addition, the result in series [33] was inactive. In addition, the outcome in series [10], in series [11], in series [4], in series [5], in [19] and in series [20] was Active. For the same molecule, the outcome in series [21], in series [22], in series [24], in series [25], in series [26] and in series [27] was Active. In addition, the outcome in [3], in series [34], in series [35], in series [36] and in series [37] was Active. Moreover, the Activity entry in series [1] is given as “Non-toxic”; in series [2] it was “Non-toxic”; in series [6] it was 15%; in [7], 5%; in [8], 80%.

As for `CCOc1ccc2c(c1)sc1nc(-c3ccccc3)c(CN3CCCC3)n12`, the Activity result in [1] and in series [2] was “Non-toxic” throughout. Further, in series [3], the result was Active.

The values above are taken from ChEMBL document CHEMBL2169750, “Imidazo-benzothiazoles a potent microRNA modulator involved in cell proliferation” (Bioorg Med Chem Lett, 2012).
